From patent US8901133B2, “Heterocyclic compounds and uses thereof” (Infinity Pharmaceuticals, Inc., priority 2010, dated 2014)

Legend:
PI3Kβ = target: T1, PI3Kβ (Homo sapiens, UniProt P42338); assay: PI3 Kinase HTRF assay, PI3Kβ; type: biochemical; settings: 10 μM PIP2, 10 μM ATP; read-out: PI3K β IC50
T1 construct: purchased Millipore Corporation 14-603-K
How it was run: (§1)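 Enzyme 0.25-0.3 ug/ml + 10 uM PIP2 + compound (2% DMSO), 15 min RT; add ATP to 10 μM, 1 h RT; stop, add detection mix, 1 h RT; TR-FRET read. IC50 by nonlinear regression.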

PI3Kδ = target: T2, PI3Kδ (Homo sapiens, UniProt O00329); assay: PI3 Kinase HTRF assay, PI3Kδ; type: biochemical; settings: 10 μM PIP2, 10 μM ATP; read-out: PI3K δ IC50
T2 construct: purchased Millipore Corporation 14-604-K
T2 sequence (O00329 whole entry): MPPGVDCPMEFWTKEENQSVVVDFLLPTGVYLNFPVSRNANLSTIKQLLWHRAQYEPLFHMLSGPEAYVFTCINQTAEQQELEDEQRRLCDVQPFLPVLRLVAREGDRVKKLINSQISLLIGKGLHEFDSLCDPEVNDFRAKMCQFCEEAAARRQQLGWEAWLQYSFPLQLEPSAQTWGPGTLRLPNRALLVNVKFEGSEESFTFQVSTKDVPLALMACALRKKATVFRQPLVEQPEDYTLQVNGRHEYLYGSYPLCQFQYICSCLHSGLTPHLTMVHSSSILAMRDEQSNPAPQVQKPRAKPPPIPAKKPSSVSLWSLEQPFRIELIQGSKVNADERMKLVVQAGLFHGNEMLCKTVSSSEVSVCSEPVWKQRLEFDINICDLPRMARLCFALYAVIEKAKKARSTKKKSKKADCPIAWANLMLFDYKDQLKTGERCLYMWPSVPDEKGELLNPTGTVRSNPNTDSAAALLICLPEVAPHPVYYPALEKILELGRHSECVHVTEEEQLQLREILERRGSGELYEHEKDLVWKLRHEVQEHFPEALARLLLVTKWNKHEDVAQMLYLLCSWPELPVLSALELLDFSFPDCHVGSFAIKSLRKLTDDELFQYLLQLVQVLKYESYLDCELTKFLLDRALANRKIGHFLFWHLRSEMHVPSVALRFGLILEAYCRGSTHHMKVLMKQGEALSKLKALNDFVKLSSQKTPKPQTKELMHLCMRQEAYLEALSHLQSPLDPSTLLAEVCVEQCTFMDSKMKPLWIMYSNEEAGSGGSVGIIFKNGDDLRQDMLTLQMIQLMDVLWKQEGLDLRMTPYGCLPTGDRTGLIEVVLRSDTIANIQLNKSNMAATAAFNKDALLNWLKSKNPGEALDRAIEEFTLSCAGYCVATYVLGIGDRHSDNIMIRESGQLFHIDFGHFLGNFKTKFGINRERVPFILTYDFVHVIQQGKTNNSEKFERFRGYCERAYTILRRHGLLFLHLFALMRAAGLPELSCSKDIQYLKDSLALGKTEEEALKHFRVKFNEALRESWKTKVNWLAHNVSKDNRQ
T2 sequence (P27986 whole entry partner): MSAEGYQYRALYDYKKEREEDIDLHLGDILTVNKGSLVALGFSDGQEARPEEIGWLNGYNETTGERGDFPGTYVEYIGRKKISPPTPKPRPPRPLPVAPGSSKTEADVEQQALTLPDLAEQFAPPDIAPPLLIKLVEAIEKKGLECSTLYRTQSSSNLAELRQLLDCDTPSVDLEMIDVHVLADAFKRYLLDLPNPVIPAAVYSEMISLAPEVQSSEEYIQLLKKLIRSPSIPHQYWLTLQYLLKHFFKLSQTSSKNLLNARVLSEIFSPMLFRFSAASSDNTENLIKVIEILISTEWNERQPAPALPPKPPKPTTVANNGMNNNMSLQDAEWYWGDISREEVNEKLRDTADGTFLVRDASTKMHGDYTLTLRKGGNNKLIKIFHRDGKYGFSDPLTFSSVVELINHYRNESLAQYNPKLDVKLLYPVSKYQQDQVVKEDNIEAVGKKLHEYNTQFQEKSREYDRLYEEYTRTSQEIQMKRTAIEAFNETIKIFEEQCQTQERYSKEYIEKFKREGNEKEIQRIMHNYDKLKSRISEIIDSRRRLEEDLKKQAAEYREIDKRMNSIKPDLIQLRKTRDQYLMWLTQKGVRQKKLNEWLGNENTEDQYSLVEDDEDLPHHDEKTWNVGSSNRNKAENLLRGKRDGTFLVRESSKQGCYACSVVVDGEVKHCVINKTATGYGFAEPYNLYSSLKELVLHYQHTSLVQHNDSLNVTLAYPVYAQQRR
How it was run: as §1

PI3Kα = target: T3, PI3Kα (Homo sapiens, UniProt P42336); assay: PI3 Kinase HTRF assay, PI3Kα; type: biochemical; settings: 10 μM PIP2, 10 μM ATP; read-out: PI3K α IC50
T3 construct: purchased Millipore Corporation 14-602-K
T3 sequence (P42336 whole entry): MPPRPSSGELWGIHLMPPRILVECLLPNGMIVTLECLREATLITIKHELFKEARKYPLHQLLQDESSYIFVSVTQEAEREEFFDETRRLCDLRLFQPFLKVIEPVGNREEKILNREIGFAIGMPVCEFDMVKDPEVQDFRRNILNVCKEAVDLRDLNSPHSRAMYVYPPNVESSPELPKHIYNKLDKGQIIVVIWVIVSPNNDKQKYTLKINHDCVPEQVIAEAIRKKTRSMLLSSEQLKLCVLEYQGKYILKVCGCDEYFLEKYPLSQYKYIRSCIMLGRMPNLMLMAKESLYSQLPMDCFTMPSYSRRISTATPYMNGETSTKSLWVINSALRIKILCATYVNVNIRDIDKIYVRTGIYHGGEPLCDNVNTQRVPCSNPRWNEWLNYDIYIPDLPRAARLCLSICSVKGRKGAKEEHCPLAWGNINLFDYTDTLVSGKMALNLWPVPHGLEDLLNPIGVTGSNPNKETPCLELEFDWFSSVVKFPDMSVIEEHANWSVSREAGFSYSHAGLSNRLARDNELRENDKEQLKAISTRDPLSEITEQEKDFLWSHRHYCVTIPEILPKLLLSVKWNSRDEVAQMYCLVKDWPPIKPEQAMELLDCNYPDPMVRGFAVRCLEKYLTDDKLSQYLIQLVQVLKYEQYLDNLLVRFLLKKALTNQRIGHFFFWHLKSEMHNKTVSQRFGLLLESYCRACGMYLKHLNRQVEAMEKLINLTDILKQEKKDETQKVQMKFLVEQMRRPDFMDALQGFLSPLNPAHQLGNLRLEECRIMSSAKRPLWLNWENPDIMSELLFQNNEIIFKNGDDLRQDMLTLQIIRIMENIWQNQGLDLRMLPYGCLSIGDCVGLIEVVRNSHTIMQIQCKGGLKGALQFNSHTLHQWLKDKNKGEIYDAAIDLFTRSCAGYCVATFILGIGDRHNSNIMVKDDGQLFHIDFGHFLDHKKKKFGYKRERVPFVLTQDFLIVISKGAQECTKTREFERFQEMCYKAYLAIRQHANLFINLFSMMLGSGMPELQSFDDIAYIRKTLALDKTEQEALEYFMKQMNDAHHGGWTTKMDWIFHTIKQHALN
T3 sequence (P27986 whole entry partner): as the sequence (P27986 whole entry partner) above
How it was run: as §1

PI3Kγ = target: T4, PI3Kγ (Homo sapiens, UniProt P48736); assay: PI3 Kinase HTRF assay, PI3Kγ; type: biochemical; settings: 10 μM PIP2, 10 μM ATP; read-out: PI3K γ IC50
T4 construct: purchased Millipore Corporation 14-558-K
T4 sequence (P48736 whole entry): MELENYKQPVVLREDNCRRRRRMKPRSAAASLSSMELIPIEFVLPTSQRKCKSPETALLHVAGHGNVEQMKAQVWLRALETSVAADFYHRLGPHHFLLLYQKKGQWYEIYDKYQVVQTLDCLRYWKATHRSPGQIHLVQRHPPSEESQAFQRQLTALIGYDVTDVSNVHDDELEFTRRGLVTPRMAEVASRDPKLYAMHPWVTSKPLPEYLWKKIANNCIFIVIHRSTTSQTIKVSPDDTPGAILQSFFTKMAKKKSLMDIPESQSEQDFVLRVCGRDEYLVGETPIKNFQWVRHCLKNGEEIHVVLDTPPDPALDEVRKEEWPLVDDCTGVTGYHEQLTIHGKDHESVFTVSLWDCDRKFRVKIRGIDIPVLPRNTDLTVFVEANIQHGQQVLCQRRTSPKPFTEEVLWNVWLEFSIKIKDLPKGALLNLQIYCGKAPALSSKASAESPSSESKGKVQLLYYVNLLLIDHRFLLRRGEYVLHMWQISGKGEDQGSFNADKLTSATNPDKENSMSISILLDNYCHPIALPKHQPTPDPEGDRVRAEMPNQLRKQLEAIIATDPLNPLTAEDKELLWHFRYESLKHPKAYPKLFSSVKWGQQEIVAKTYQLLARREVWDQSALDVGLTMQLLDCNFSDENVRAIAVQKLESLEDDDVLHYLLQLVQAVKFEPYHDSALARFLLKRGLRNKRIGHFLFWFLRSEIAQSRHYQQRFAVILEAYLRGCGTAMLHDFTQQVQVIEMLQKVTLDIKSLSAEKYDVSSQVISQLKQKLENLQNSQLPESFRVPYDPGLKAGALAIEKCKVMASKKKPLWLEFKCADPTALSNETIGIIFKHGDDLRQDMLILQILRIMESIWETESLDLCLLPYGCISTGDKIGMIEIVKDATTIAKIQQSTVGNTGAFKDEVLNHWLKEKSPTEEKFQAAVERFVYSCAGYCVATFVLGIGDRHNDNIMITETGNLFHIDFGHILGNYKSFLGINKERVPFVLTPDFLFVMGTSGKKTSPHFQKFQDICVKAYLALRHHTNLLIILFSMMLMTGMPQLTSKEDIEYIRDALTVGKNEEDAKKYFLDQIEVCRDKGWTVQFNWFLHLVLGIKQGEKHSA
How it was run: as §1

Balb/c splenic B cells = assay: B cell activation and proliferation assay (Alamar Blue); type: cell-based; settings: Mus musculus, read-out: B cell prolif. IC50
How it was run: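 Purified cells (50,000/well, RPMI + 10% FBS) were preincubated 30 min at 37 °C with compound (0.2% DMSO final). Stimulation was with a cocktail containing either 10 ug/ml LPS or 5 ug/ml anti-mouse IgM F(ab′)2 plus 2 ng/ml mouse IL4, for 72 h. Viability by 5 h Alamar Blue reduction (560Ex/590Em); IC50 or EC50 fitted.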

lupus symptoms = settings: B6.Sle1z.Sle3z model; cited from earlier work
[1] = PBS pH 7.4, 37° C., 24 hours, 5 μM; cited from earlier work
[2] = control or reference compounds, 5 μM; cited from earlier work

T1 sequence (P42338 whole entry): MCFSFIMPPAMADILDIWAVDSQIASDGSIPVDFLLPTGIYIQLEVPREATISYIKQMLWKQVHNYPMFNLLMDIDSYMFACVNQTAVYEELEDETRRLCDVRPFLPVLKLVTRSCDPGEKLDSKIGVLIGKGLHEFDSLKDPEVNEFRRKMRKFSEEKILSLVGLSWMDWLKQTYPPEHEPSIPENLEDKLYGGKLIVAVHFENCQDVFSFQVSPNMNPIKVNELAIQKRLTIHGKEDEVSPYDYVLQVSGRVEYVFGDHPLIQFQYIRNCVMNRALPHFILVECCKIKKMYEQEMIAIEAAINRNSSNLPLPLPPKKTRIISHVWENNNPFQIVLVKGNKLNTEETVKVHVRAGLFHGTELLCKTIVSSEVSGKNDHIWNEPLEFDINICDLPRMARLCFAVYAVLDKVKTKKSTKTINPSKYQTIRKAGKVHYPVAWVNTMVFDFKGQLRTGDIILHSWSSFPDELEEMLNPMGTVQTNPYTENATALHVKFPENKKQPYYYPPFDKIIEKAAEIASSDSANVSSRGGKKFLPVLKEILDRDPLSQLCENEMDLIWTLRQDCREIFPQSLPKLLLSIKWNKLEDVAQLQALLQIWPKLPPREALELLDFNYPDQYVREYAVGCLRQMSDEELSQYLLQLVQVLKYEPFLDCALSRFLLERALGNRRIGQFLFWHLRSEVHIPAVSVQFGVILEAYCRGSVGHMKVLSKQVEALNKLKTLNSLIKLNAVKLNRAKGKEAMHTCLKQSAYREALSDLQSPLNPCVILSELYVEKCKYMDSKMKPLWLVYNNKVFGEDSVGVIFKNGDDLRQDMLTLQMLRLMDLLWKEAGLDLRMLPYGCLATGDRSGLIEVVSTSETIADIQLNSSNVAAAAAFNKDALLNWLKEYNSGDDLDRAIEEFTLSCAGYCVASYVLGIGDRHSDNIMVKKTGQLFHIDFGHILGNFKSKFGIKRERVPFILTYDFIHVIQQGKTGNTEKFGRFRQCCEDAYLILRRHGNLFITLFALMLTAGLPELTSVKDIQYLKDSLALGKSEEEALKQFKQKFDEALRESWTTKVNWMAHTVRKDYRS
T1 sequence (P27986 whole entry partner): as the sequence (P27986 whole entry partner) above

IC50 (PI3Kβ) | IC50 (PI3Kδ) | IC50 (PI3Kα) | IC50 (PI3Kγ) | SMILES | IC50 (Balb/c splenic B cells) | further results
< 1000 nM | < 100 nM | < 10000 nM | < 1000 nM | C[C@H](Nc1ncnc2[nH]cnc12)c1cc2cccc(Cl)c2c(-c2cc(CO)on2)n1 [Compound 242] | < 100 nM | –
> 10000 nM | < 100 nM | > 10000 nM | > 10000 nM | C[C@H](Nc1ncnc2cccnc12)c1cc2ccccc2c(C(=O)N2CCOCC2)n1 [Compound 247] | < 1000 nM | –
< 10000 nM | < 100 nM | < 10000 nM | < 1000 nM | C[C@H](Nc1ncnc2cccnc12)c1cc2cccc(Cl)c2c(C(=O)N2CCOC[C@@H]2C)n1 [Compound 248] | < 100 nM | –
– | – | – | – | CO[C@H]1C[C@@H]2CC[C@@H](C)[C@@](O)(O2)C(=O)C(=O)N2CCCC[C@H]2C(=O)O[C@H]([C@H](C)C[C@@H]2CC[C@@H](OCCO)[C@H](OC)C2)CC(=O)[C@H](C)/C=C(\C)[C@@H](O)[C@@H](OC)C(=O)[C@H](C)C[C@H](C)/C=C/C=C/C=C/1C [RAD001, everolimus] | – | lupus symptoms (lupus symptoms): ameliorate lupus symptoms
– | – | – | – | O=C(O)CCCc1ccc(N(CCCl)CCCl)cc1 [chlorambucil] | – | chemical stability [1]: largely hydrolyzed over the course of 24 hours
– | – | – | – | CC(C)[N+](C)(CCOC(=O)C1c2ccccc2Oc2ccccc21)C(C)C [propantheline] | – | plasma stability [2]: intermediate plasma stability
– | – | – | – | CCCOc1cc(N)ccc1C(=O)OCCN(CC)CC [propoxycaine] | – | plasma stability [2]: low plasma stability
